We go through eight compounds from patent publication US20210154208A1, “Method to Identify Agents That Can Overcome Inhibition Caused By Drug-protein Binding of the Human Plasma Protein, Alpha-1-acid Glycoprotein” (The Johns Hopkins University, priority 2019, published 2021).

Bounds are passed on as bounds.

The test system of experiment [1] is MOLM-14 cells. In words: Modified PIA, MTT proliferation with purified human AGP. Type of experiment: cell-based. The following applies: for ability to displace TKI (TTT-3002, CEP-701) from AGP: MOLM-14, AGP 1.0 mg/mL, increasing doses of competitor, FIG. 13; for inhibition of TKI activity by purified human AGP: MOLM-14, purified human AGP at physiologic concentration (1 mg/mL), sub-physiologic also tested. The protocol: (§1) In the original plasma inhibitory assay (PIA), FLT3/ITD-expressing cells are co-incubated with plasma samples from patients receiving a FLT3 TKI, and Western blotting analysis of FLT3 auto-phosphorylation is used to measure the extent of FLT3 inhibitory activity present in their plasma.(9) This can then be compared to total plasma drug levels to determine the relative efficacy of a drug in vivo compared to its activity in vitro. […] To model these effects in the pre-clinical setting, we modified the PIA assay. Whereas the PIA was designed to assess in vivo drug activity with regards to a specific target (e.g.: inhibition of FLT3 auto-phosphorylation by TKI), the modified PIA is similarly cell-based, but measures the clinically relevant biological end-points of cytotoxicity and proliferation inhibition, instead of target inhibition. In the modified assay, FLT3/ITD cell lines are cultured in the presence of human plasma or purified human plasma proteins and treated with a range of concentrations of the drug of interest. […] Furthermore, like the original PIA, Western blot analysis can be performed on cells treated in this manner to study specific pathways of interest (FIG. 1B). […] The modified PIA utilizes the general endpoint of cytotoxicity.
(§2) Where Δ is the fold-change in IC50, KA is the drug-protein association constant, P0 is the total protein concentration and PA is the drug-bound protein concentration. From this relationship, in the absence of other drug-protein interactions, fold-change is linearly related to drug-free protein concentration. […] When the analysis also takes into account drug-bound protein, these curves can be used to directly measure KA. To that end, we performed the modified PIA using purified AGP against the staurosporine-derived FLT3 TKI, using MOLM-14 cells (FIG. 4A). For comparison, we also assayed the anti-proliferative effects of non-specific protein kinase C inhibition by staurosporine itself in HL-60 cells (FLT3 wild-type AML).
(§3) Cells in logarithmic growth are resuspended in either human plasma or serum-free RPMI 1640 media supplemented with the plasma protein of interest and seeded in 96-well format at 50 μL per well. Cell density is 2×10^5 cells per well for MOLM-14 and Ba/F3-FLT3/ITD cells. To each well 50 μL of 2× drug dilution in RPMI 1640 media with 10% serum was added. Each condition is plated in quadruplicate. The cells are then incubated at 37° C. After 44 hours of treatment, 10 μL of 5 mg/mL thiazolyl blue tetrazolium bromide (MTT, Sigma) in PBS, sterile-filtered, is added to each well, and the plates are incubated for an additional 4 hours at 37° C. 100 of 10% sodium dodecyl sulfate (JT Baker) in 10 mM hydrochloric acid (Fisher) is then added to each well, and the plates are incubated at 37° C. overnight. Optical absorbance at 570 nm is measured via plate reader (iMark, Bio-Rad), averaging across technical replicates.

For experiment [2], the system named is MOLM-14 cells. Kind of experiment: Modified plasma inhibition assay (PIA), MTT proliferation in 50% human plasma. Type of experiment: cell-based. The note with it: MOLM-14, 48 hours; for fold inhibition (increase in IC50) in the presence of 50% human plasma: MTT, 50% human plasma vs 10% FBS. The protocol:
as §1
as §3, with “100 of 10% sodium dodecyl sulfate (JT Baker) in 10 mM hydrochloric acid (Fisher) is then added to each well, and the plates are incubated at 37° C. overnight.” left out

The subject of the next experiment is FLT3. In words: Western blot of FLT3 autophosphorylation and downstream signaling. The class given is cell-based, human. How it is done: Cells in logarithmic growth are resuspended in either plasma or RPMI 1640 media supplemented with either 10% FBS serum or physiologic concentrations of purified plasma proteins. The cells are cultured for 1 hour at 37° C. in the presence of drug(s) with intermittent shaking. The cells are then washed, lysed with RIPA buffer (Sigma) per manufacturer's protocol, and total cell lysates separated by sodium dodecyl sulfate polyacrylamide gel electrophoresis (Invitrogen) with Western transfer onto polyvinyl difluoride membranes (Millipore). The membranes are probed for FLT3 by using the S-18 antibody (Santa Cruz), or for other proteins using the indicated antibodies (Cell Signaling Technology), followed by horseradish peroxidase-conjugated goat anti-rabbit secondary antibodies with enhanced chemiluminescence detection (Bio-Rad).

Another experiment deals with HL-60 cells. In words: Modified PIA with purified AGP, anti-proliferative effect of staurosporine. The note with it: HL-60 cells (FLT3 wild-type AML). Type of experiment: cell-based, human.
Text: as §2
Cells in logarithmic growth are resuspended in either human plasma or serum-free RPMI 1640 media supplemented with the plasma protein of interest and seeded in 96-well format at 50 μL per well. Cell density is 2×10^5 cells per well for MOLM-14 and Ba/F3-FLT3/ITD cells. To each well 50 μL of 2× drug dilution in RPMI 1640 media with 10% serum was added. Each condition is plated in quadruplicate. The cells are then incubated at 37° C. […] Optical absorbance at 570 nm is measured via plate reader (iMark, Bio-Rad), averaging across technical replicates.

The subject of a further experiment is Ba/F3-FLT3/ITD-Luc cells. Kind of experiment: Ba/F3-FLT3/ITD-Luc engrafted mouse model with human AGP, bioluminescent imaging. The class given is in vivo, BALB/c mice. The following applies: mifepristone by oral gavage during treatment, imaged day 9.
Another experiment deals with AGP (Homo sapiens, UniProt P02763). The note with it: reported value; cited from earlier work.
Chain of AGP (P02763 19-201): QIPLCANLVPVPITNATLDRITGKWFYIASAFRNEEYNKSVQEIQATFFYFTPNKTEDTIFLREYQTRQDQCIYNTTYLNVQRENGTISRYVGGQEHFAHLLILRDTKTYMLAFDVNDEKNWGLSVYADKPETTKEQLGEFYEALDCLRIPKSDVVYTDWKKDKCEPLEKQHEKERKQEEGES

Description for Ba/F3-FLT3/ITD-Luc cells: We transplanted sublethally-irradiated BALB/c mice with Ba/F3-FLT3/ITD-Luc cells (Ba/F3 cells expressing both FLT3/ITD and a luciferase reporter). […] Twenty-four hours after the final treatment (day 9), the mice were again imaged to assess response (FIG. 8C).
BALB/c mice were transplanted after 300 cGy of sublethal X-ray irradiation using a CIXD irradiator (Xstrahl). 5×10^5 Ba/F3-FLT3/ITD-Luc cells were injected via tail vein. Intraperitoneal injections were performed using PBS vehicle with human AGP (Sigma) at 20 mg/mL. […] Mifepristone (Sigma) was dissolved in 50% ethanol and 50% (2-hydroxypropyl)-□-cyclodextrin (Sigma) and administered by oral gavage every 48 hours. Mice were imaged by intraperitoneal injection of luciferin (3 mg) and visualizing on an IVIS Spectrum imager (Caliper LifeSciences) using Living Image software for analysis on day 5 (to monitor engraftment) and on day 9 (to assess drug effect).

`CN(C)CCC=C1c2ccccc2CCc2ccccc21` [amitriptyline]: the “ability to displace TKI (TTT-3002, CEP-701) from AGP” value in the experiment with MOLM-14 cells [1] is on record as “cannot displace the more tightly-bound TKI from AGP”.

As for `C[C@]12O[C@H](C[C@]1(O)CO)n1c3ccccc3c3c4c(c5c6ccccc6n2c5c31)CNC4=O` [lestaurtinib], the “fold inhibition by AGP, predicted” value in the experiment on MOLM-14 cells [1] (MOLM-14, purified AGP at physiologic concentrations, predicted) is on record as above 1000 fold. Besides, in the experiment on MOLM-14 cells [1] (human AGP), the “shift in IC50 with human AGP” value was found to be 500 fold.

As for `O=C1CCC(N2C(=O)c3ccccc3C2=O)C(=O)N1` (centres unmarked) [thalidomide], the “ability to displace TKI (TTT-3002, CEP-701) from AGP” value with MOLM-14 cells [1] is “cannot displace the more tightly-bound TKI from AGP”.

In the case of `CNC(=O)[C@@]1(N)C[C@H]2O[C@]1(C)n1c3ccccc3c3c4c(c5c6ccccc6n2c5c31)C(=O)NC4` [TTT-3002], in the experiment with MOLM-14 cells [1] (MOLM-14, purified AGP at physiologic concentrations), the “fold inhibition by AGP (fold-change in IC50)” value came out at 30 fold. In addition, in the experiment with MOLM-14 cells [1], the “inhibition of TKI activity by purified human AGP” value (“inhibition of TKI activity” for short) is given as “comparable inhibition to that observed with human plasma”. Besides, the “effect of human plasma on IC50” value in the experiment on MOLM-14 cells [2] (50% human plasma vs 10% fetal bovine serum) is on record as “significantly increased the IC50”. Besides, in the experiment with MOLM-14 cells [2], the “fold inhibition (increase in IC50) in the presence of 50% human plasma” value turned out to be 9 fold. Also, the “inhibition of FLT3 phosphorylation in the presence of human plasma” value with FLT3 (MOLM-14, 1 hour, TKI 10 nM and 100 nM, human plasma) is “significant decrease in inhibition of FLT3 phosphorylation”.

On to `CN[C@@H]1C[C@H]2O[C@@](C)([C@@H]1OC)n1c3ccccc3c3c4c(c5c6ccccc6n2c5c31)C(=O)NC4` [staurosporine], for which the “anti-proliferative activity in the presence of AGP” value in the experiment with HL-60 cells is “no appreciable activity in the presence of AGP until saturating concentrations of drug were used”.

In the case of `CC#C[C@]1(O)CC[C@H]2[C@@H]3CCC4=CC(=O)CCC4=C3[C@@H](c3ccc(N(C)C)cc3)C[C@@]21C` [mifepristone], the “effect of agent alone on cell growth” value in the experiment on MOLM-14 cells [1] (MOLM-14, concentrations of maximal disinhibiting effect) is “no appreciable effect on cell growth”. Besides, the “effect on TTT-3002 dose-response curve in the presence of purified AGP” value in the experiment with MOLM-14 cells [1] (MOLM-14, increasing concentrations of mifepristone, TTT-3002 plus AGP) is “dose-response curve shifted back to that seen in the absence of AGP”. Also, in the experiment on MOLM-14 cells [1] (MOLM-14, no AGP), the “effect on TTT-3002 dose-response curves in the absence of AGP” value is on record as “no impact”. Moreover, the “response of FLT3/ITD-expressing cells (bioluminescence), mifepristone added to midostaurin/AGP” value in the experiment with Ba/F3-FLT3/ITD-Luc cells is “regression of the transplanted cells at levels comparable to those of the midostaurin alone treated mice”. For the same compound, the “restoration of FLT3 inhibition by TTT-3002 in the presence of AGP” value in the experiment with FLT3 (MOLM-14, TTT-3002 (2 nM), inhibiting AGP, increasing mifepristone) is reported as “dose-dependent restoration of FLT3 inhibition”. The “effect of agent alone on FLT3 autophosphorylation or downstream signaling” value with FLT3 (MOLM-14, mifepristone alone) was “no effect”. Besides, the “KA (association constant with AGP)” value at AGP was 7 to 8 µM⁻¹.

With `CC(C)(C)c1cc(NC(=O)Nc2ccc(-c3cn4c(n3)sc3cc(OCCN5CCOCC5)ccc34)cc2)no1` [quizartinib], the “inhibition of TKI activity” value in the experiment with MOLM-14 cells [1] is “not significant inhibited”. The “fold inhibition (increase in IC50) in the presence of 50% human plasma” value in the experiment on MOLM-14 cells [2] worked out at 37 fold.

For the compound `CNC(=O)c1cc(Oc2ccc(NC(=O)Nc3ccc(Cl)c(C(F)(F)F)c3)cc2)ccn1` [sorafenib], the “inhibition of TKI activity” value in the experiment on MOLM-14 cells [1] is “not significant inhibited”.
